{"source": "patent US20240122926A1", "about": "“APELIN RECEPTOR MODULATORS FOR TREATING MUSCLE CONDITIONS” (priority 2022, published 2024)", "key": {"mouse APLNR": {"target": "T1, mouse APLNR (Mus musculus, UniProt Q9WV08)", "T1 construct": "host or cells: CHO cells", "T1 sequence (Q9WV08 1-377)": "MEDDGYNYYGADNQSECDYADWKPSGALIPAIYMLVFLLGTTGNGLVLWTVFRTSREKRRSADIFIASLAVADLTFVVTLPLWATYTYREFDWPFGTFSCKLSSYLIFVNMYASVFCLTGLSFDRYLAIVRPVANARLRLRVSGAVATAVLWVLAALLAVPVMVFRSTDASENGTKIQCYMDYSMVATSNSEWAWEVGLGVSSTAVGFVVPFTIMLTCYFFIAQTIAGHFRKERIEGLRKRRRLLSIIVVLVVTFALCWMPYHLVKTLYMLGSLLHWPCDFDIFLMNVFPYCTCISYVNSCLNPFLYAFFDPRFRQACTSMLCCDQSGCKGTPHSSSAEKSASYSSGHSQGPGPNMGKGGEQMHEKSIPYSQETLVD", "experiment": "PathHunter β-arrestin eXpress GPCR assay, CHO cells stably expressing mouse APLNR", "type": "cell-based", "settings": "for Emax: CHO", "method": "APLNR activation was determined by β-arrestin recruitment as measured by the ProLink […] complementation technology (93-0001, DiscoveRx). In brief, CHO cells stably expressing APLNR were seeded and incubated overnight at 37° C. The compounds were tested in duplicate and diluted to obtain a 10-point curve with 3-fold serial dilutions (<1% DMSO). The compounds and cells were incubated for 3 hours at 37° C. After the incubation period the detection reagents were added and the plate chemiluminescent signal was measured after 30 min at RT."}, "healthy adult subjects": {"system": "healthy adult subjects", "experiment": "Phase 1 study Part A (SAD), safety and tolerability", "type": "in vivo, human", "settings": "SAD cohorts", "method": "Safety data is summarized using descriptive statistics (number of subjects, mean, median, standard deviation, minimum, and maximum) for continuous variables and using frequency and percentages for discrete variables.\nAdverse events are coded using the Medical Dictionary for Regulatory Activities. The number of events, incidence, and percentage of TEAEs are calculated overall by system organ class, preferred term, and treatment group for each cohort and treatment group. The number and percentage of subjects with TEAEs are further summarized by severity and relationship to study drug. AEs related to study drug, AEs leading to withdrawal, SAEs, and deaths are also similarly summarized and/or listed in a similar manner."}, "[1]": {"system": "healthy volunteers aged ≥65 years", "experiment": "Phase 1b bed rest study, muscle protein synthesis rate (heavy water, vastus lateralis microbiopsy)", "type": "in vivo, human", "method": "Heavy Water Consumption and Assessments. For subjects in Part B only, heavy water, deuterated H2O (D2O), is provided to subjects to drink during the pre-treatment and treatment periods before breakfast, in the afternoon, and after fasting overnight, at timepoints described previously. Blood samples (10 mL) and urine samples are collected at timepoints described previously to assess skeletal muscle protein fractional synthetic rate (FSR).\nSkeletal muscle protein synthesis rate (%/time) for individual muscle proteins are compared first as a linear contrast including all doses versus placebo and then as individual dose comparisons to placebo.\nOne day before (baseline, D-1) and 5 (D5) and 10 (D10) days after initiation of bed rest, key muscle atrophy endpoints were measured: thigh circumference; cross-sectional area (CSA) and A-P diameter of vastus lateralis (ultrasound); ultrasound muscle quality grade, an index that quantifies fatty degeneration in muscle (ultrasound echo density); and muscle protein synthesis rate (biopsy). Parameters measured during the 10-day bed rest period include thigh circumference, muscle size, muscle quality (e.g., fatty degeneration), and muscle protein synthetic rate."}, "serum proteome": {"system": "serum proteome", "experiment": "Phase 1b bed rest study, serum proteomic profiling", "type": "in vivo, human", "method": "Proteomic profiling and analysis were performed on serum collected from the phase 1B clinical trial subjects (treated vs placebo) as described above. Eleven (11) treated and 10 placebo subject's serum levels were profiled for their proteomics collected at day −1 (baseline), day 5 and day 11. A linear regression model was implemented with an interaction term between treatment group and day to identify proteins whose differential abundance between the treatment groups influenced the average rate of change per day of a given protein. This model was fit separately for all proteins measured, and the resulting coefficient (on the interaction term) for each protein was used to rank order all proteins from most positive to most negative coefficient.\nFor each human aging cohort phenotype (various physical function phenotypes and mortality), two protein sets consisting respectively (to preserve directionality) of the proteins positively and negatively associated (p<0.05) with that phenotype. Significant phenotypes in the right-hand graph of FIG. 48 and FIG. 49 with their GSEA plots and p-values (significant phenotypes were not shown when their protein sets overlapped substantially with those of already shown phenotypes)."}, "[2]": {"system": "fast and slow skeletal muscle", "experiment": "snRNAseq of vastus lateralis muscle biopsies from Phase 1b study", "type": "in vivo, human", "excerpt": "FIG. 40 illustrates nuclei isolation for 10× Genomics single cell transcriptome gene expression technology used to assess tissue samples. […] Tissue samples were collected from patients and processed in a laboratory. Tissues were dissociated and cleaned up. The debris were removed and the sample (e.g., nuclei) was washed, resuspended for multiple cycles according to routine tissue processing procedures. Cell nuclei were visualized and counted using standard transcriptome gene expression technologies 10× Genomics single cell library technology is used for assessing tissue samples.\nCell type clustered include fast skeletal muscle, slow skeletal muscle (type 1), myofibroblast, tenocytes, fibroblasts, muscle stem cells, pericytes, smooth muscle, endothelial cells, T/NK cells, and adipocytes. Two methods and two annotations were used."}}, "note": "Like-named read-outs stand apart in the source and are kept apart here."}
{"smiles": "COc1cccc(OC)c1-n1c(NS(=O)(=O)[C@@H](C)[C@H](C)c2ncc(C)cn2)nnc1-c1cncc(C)c1", "note": "[BGE-105, (2S,3R)—N-(4-(2,6-dimethoxyphenyl)-5-(5-methyl-3-pyridinyl)-4H-1,2,4-triazol-3-yl)-3-(5-methyl-2-pyrimidinyl)-2-butanesulfonamide]", "values": [{"measurement": "EC50", "setting": "mouse APLNR", "result": 0.8, "unit": "nM"}, {"measurement": "Emax", "setting": "mouse APLNR; read-out: maximum effect (Emax)", "result": 65, "unit": "%"}, {"measurement": "Emax", "setting": "mouse APLNR; read-out: maximum effect (Emax), replication", "result": 60, "unit": "%"}, {"measurement": "serious adverse events", "setting": "healthy adult subjects", "result": "no serious adverse events"}, {"measurement": "tolerability", "setting": "healthy adult subjects; all doses including 240 mg/1440 mg", "result": "well tolerated"}, {"measurement": "mean normalized fraction synthetic rate, range", "setting": "[1]; BGE-105 treated patients with elevated rate, 10 days bed rest", "result": "0.18-2.2"}, {"measurement": "number of patients (out of 11) with elevated rate of muscle protein synthesis", "setting": "[1]; after 10 days of bed rest", "result": 8}, {"measurement": "decrease in the synthetic rate of muscle myofibril proteins (FSR/day) from baseline", "setting": "[1]; vastus lateralis (placebo 58%)", "result": 36, "unit": "%"}, {"measurement": "number of proteins associated with grip strength (out of 379) changed by treatment", "setting": "serum proteome", "result": 58}, {"measurement": "number of proteins associated with walk speed (out of 526) changed by treatment", "setting": "serum proteome", "result": 35}, {"measurement": "number of proteins associated with frailty (out of 992) changed by treatment", "setting": "serum proteome; p<0.05", "result": 69}, {"measurement": "number of muscle proteins (out of 18) statistically highly expressed in fast skeletal muscle", "setting": "[2]; treated compared to placebo", "result": 15}, {"measurement": "differentially expressed genes associated with treatment, fast skeletal muscle", "setting": "[2]; vastus lateralis biopsies", "result": 3418}, {"measurement": "differentially expressed genes associated with treatment, slow skeletal muscle (Type 1)", "setting": "[2]; vastus lateralis biopsies", "result": 1571}]}
